Measured values taken from paper PMC12285946, “Investigation of the Cytotoxicity of Cu(II), Au(III), and Pd(II) Complexes with 2,4-Dithiouracil and 6-Propyl-2-thiouracil Derivatives” (BioTech, 2025).

Columns and labels:
HeLa cell lines = conditions: cited from earlier work
[1] = test system: HeLa cell line (human cervical carcinoma); assay: MTT cell viability assay, HeLa tumor cell line; format: cell-based; conditions: for Cytotoxic Concentration (CD50): MTT, 72 h
Protocol: (§1) To assess the in vitro biocompatibility of the tested compounds, a series of cell viability assays were conducted on human cervical carcinoma cell lines (HeLa), as well as on normal Vero cells (kidney cells from the African green monkey). All cell lines were obtained from the German Collection of Microorganisms and Cell Cultures (DSMZ GmbH, Braunschweig, Germany). The cell cultures were maintained in DMEM (Dulbecco’s Modified Eagle Medium) (Gibco Thermofisher Scientific, 168 Third Avenue, Waltham, MA, USA, 02451) growth medium, supplemented with 10% fetal bovine serum (FBS, Sigma-Aldrich, Darmstadt, Germany) and 5% L-glutamine (Sigma-Aldrich, Darmstadt, Germany) and incubated under controlled conditions of 37 °C in a humidified atmosphere with 5% CO2.
(§2) The experimental approach included a series of cytotoxicity assays to determine the extent of cell proliferation inhibition by the synthesized complexes and their free ligands. Cell viability was quantified using a standard MTT-based colorimetric assay. Exponentially growing cells were harvested and seeded (100 μL per well) into 96-well plates at an appropriate density—3 × 10^5 for HeLa and Vero cells. The cells were exposed to various concentrations of the tested compounds, ranging from 0.0001 to 10 mg/mL, and incubated for 72 h.
(§3) Statistical significance was established at p ≤ 0.05.

[2] = test system: Vero cell line (kidney cells from African green monkey); assay: MTT cell viability assay, Vero normal cell line; format: cell-based; conditions: for Cytotoxic Concentration (CD50): Vero normal cell line, MTT, 72 h
Protocol: as §1, §2, §3

N.N.[Cl][Pt][Cl] [Cisplatin]
reduction in cell viability (HeLa cell lines; 0.15 mg/mL, 24 h, HeLa): about 10% | concentration leading to a significant loss of cell viability (HeLa cell lines; HeLa, on average): 0.003 mg/mL | concentration needed for complete inhibition of viability (HeLa cell lines; human cervical carcinoma cell line): higher than 1.5 mg/mL

N.N.O=C([O-])C1(C(=O)[O-])CCC1.[Pt+2] [carboplatin]
concentration yielding complete inhibition of cell viability (HeLa cell lines; HeLa): 1 mg/mL

CCCc1cc(=O)[nH]c(=S)[nH]1 [6-propyl-2-thiouracil]
cytotoxic activity relative to 2,4-dithiouracil [1]: three times | Cytotoxic Concentration (CD50) [1]: 0.0955 mM | Cytotoxic Concentration (CD50) [2]: 0.6068 mM | cytotoxic activity relative to 2,4-dithiouracil ([2]; normal cell line (Vero)): two times stronger

Sc1ccnc(S)n1 [2,4-dithiouracil]
Cytotoxic Concentration (CD50) [1]: 0.3167 mM | Cytotoxic Concentration (CD50) [2]: 1.421 mM
